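Values below derive from 48-hour exposures of cells grown in 96-well plates, with endpoints linearly interpolated between the two concentrations bracketing the appropriate inhibition level. Abbreviation: GI50, concentration required for 50% inhibition of growth. TGI: total growth inhibition.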
Legend:
Test in all cases: growth of human tumour cells (NCI), 48 h
786-0 renal = system: 786-0 renal
A498 renal = system: A498 renal
A549 NSCLC = system: A549 NSCLC
ACHN renal = system: ACHN renal
BT-549 breast = system: BT-549 breast
CAKI-1 renal = system: CAKI-1 renal
CCRF-CEM leukemia = system: CCRF-CEM leukemia
COLO 205 colon = system: COLO 205 colon
DU-145 prostate = system: DU-145 prostate
EKVX NSCLC = system: EKVX NSCLC
HCC-2998 colon = system: HCC-2998 colon
HCT-116 colon = system: HCT-116 colon
HCT-15 colon = system: HCT-15 colon
HL-60(TB) leukemia = system: HL-60(TB) leukemia
HOP-62 NSCLC = system: HOP-62 NSCLC
HOP-92 NSCLC = system: HOP-92 NSCLC
HS 578T breast = system: HS 578T breast
HT29 colon = system: HT29 colon
IGROV1 ovarian = system: IGROV1 ovarian
K-562 leukemia = system: K-562 leukemia
KM12 colon = system: KM12 colon
LOX IMVI melanoma = system: LOX IMVI melanoma
M14 melanoma = system: M14 melanoma
MALME-3M melanoma = system: MALME-3M melanoma
MCF7 breast = system: MCF7 breast
MDA-MB-231 breast = system: MDA-MB-231 breast
MDA-MB-435 = system: MDA-MB-435
MOLT-4 leukemia = system: MOLT-4 leukemia
NCI-H226 lung = system: NCI-H226 lung
NCI-H23 lung = system: NCI-H23 lung
NCI-H460 lung = system: NCI-H460 lung
NCI-H522 lung = system: NCI-H522 lung
NCI/ADR-RES ovarian = system: NCI/ADR-RES ovarian
OVCAR-3 ovarian = system: OVCAR-3 ovarian
OVCAR-4 ovarian = system: OVCAR-4 ovarian
OVCAR-5 ovarian = system: OVCAR-5 ovarian
OVCAR-8 ovarian = system: OVCAR-8 ovarian
PC-3 prostate = system: PC-3 prostate
RPMI-8226 leukemia = system: RPMI-8226 leukemia
RXF 393 renal = system: RXF 393 renal
SF-268 CNS = system: SF-268 CNS
SF-295 CNS = system: SF-295 CNS
SF-539 CNS = system: SF-539 CNS
SK-MEL-2 melanoma = system: SK-MEL-2 melanoma
SK-MEL-28 melanoma = system: SK-MEL-28 melanoma
SK-MEL-5 melanoma = system: SK-MEL-5 melanoma
SK-OV-3 ovarian = system: SK-OV-3 ovarian
SN12C renal = system: SN12C renal
SNB-19 CNS = system: SNB-19 CNS
SNB-75 CNS = system: SNB-75 CNS
SR leukemia = system: SR leukemia
SW-620 colon = system: SW-620 colon
T-47D breast = system: T-47D breast
TK-10 renal = system: TK-10 renal
U251 CNS = system: U251 CNS
UACC-257 melanoma = system: UACC-257 melanoma
UACC-62 melanoma = system: UACC-62 melanoma
UO-31 renal = system: UO-31 renal

## NC(=O)c1cnc(N[C@@H]2CCCC[C@@H]2N)nc1Nc1cccc(-n2nccn2)c1
786-0 renal
  GI50: 5.57 µM
  TGI: 17.6 µM
A498 renal
  GI50: 4.62 µM
  TGI: 17.4 µM
A549 NSCLC
  GI50: 3.58 µM
  TGI: 14.3 µM
ACHN renal
  GI50: 2.69 µM
  TGI: 11.1 µM
BT-549 breast
  GI50: 6.37 µM
  TGI: 19 µM
CAKI-1 renal
  GI50: 2.47 µM
  TGI: 8.09 µM
CCRF-CEM leukemia
  GI50: 5 µM
  TGI: 19.8 µM
COLO 205 colon
  GI50: 1.81 µM
  TGI: 4.56 µM
DU-145 prostate
  GI50: 3.84 µM
  TGI: 15.8 µM
EKVX NSCLC
  GI50: 6.04 µM
  TGI: 18.9 µM
HCC-2998 colon
  GI50: 1.99 µM
  TGI: 4.82 µM
HCT-116 colon
  GI50: 2.3 µM
  TGI: 7.7 µM
HCT-15 colon
  GI50: 3.81 µM
  TGI: 14.9 µM
HL-60(TB) leukemia
  GI50: 1.5 µM
  TGI: 3.82 µM
HOP-62 NSCLC
  GI50: 4.69 µM
  TGI: 17.7 µM
HOP-92 NSCLC
  GI50: 2.7 µM
  TGI: 8.72 µM
HS 578T breast
  GI50: 3.37 µM
  TGI: 20.7 µM
HT29 colon
  GI50: 2.82 µM
  TGI: 11.5 µM
IGROV1 ovarian
  GI50: 4.01 µM
  TGI: 14.3 µM
K-562 leukemia
  GI50: 3.94 µM
  TGI: 14.7 µM
KM12 colon
  GI50: 2.15 µM
  TGI: 10.2 µM
LOX IMVI melanoma
  GI50: 2.11 µM
  TGI: 6.12 µM
M14 melanoma
  GI50: 2.11 µM
  TGI: 6.14 µM
MALME-3M melanoma
  GI50: 3.06 µM
  TGI: 10.4 µM
MCF7 breast
  GI50: 2.33 µM
  TGI: 10.2 µM
MDA-MB-231 breast
  GI50: 4.13 µM
  TGI: 17.3 µM
MDA-MB-435
  GI50: 3.03 µM
  TGI: 10.9 µM
MOLT-4 leukemia
  GI50: 2.94 µM
  TGI: 12.7 µM
NCI-H226 lung
  GI50: 4.73 µM
  TGI: 17.8 µM
NCI-H23 lung
  GI50: 3.24 µM
  TGI: 17.2 µM
NCI-H460 lung
  GI50: 3.42 µM
  TGI: 12.6 µM
NCI-H522 lung
  GI50: 4.14 µM
  TGI: 17.5 µM
NCI/ADR-RES ovarian
  GI50: 14.6 µM
  TGI: 30.6 µM
OVCAR-3 ovarian
  GI50: 5.94 µM
  TGI: 18.4 µM
OVCAR-4 ovarian
  GI50: 7.01 µM
  TGI: 19.6 µM
OVCAR-5 ovarian
  GI50: 3.65 µM
  TGI: 15.3 µM
OVCAR-8 ovarian
  GI50: 6.6 µM
  TGI: 20 µM
PC-3 prostate
  GI50: 5.16 µM
  TGI: 20.7 µM
RPMI-8226 leukemia
  GI50: 6.7 µM
  TGI: 23 µM
RXF 393 renal
  GI50: 2.34 µM
  TGI: 8.05 µM
SF-268 CNS
  GI50: 5.82 µM
  TGI: 19.7 µM
SF-295 CNS
  GI50: 13.3 µM
  TGI: 26.7 µM
SF-539 CNS
  GI50: 5.44 µM
  TGI: 17.2 µM
SK-MEL-2 melanoma
  GI50: 3.29 µM
  TGI: 15.2 µM
SK-MEL-28 melanoma
  GI50: 3.26 µM
  TGI: 11.3 µM
SK-MEL-5 melanoma
  GI50: 5.37 µM
  TGI: 18 µM
SK-OV-3 ovarian
  GI50: 4.14 µM
  TGI: 15.1 µM
SN12C renal
  GI50: 4.13 µM
  TGI: 17.6 µM
SNB-19 CNS
  GI50: 10.7 µM
  TGI: 25 µM
SNB-75 CNS
  GI50: 2.21 µM
  TGI: 12.4 µM
SR leukemia
  GI50: 2.23 µM
  TGI: 6.5 µM
SW-620 colon
  GI50: 3.81 µM
  TGI: 13.4 µM
T-47D breast
  GI50: 6.44 µM
  TGI: 22.1 µM
TK-10 renal
  GI50: 5.55 µM
  TGI: 17.8 µM
U251 CNS
  GI50: 5.87 µM
  TGI: 18.2 µM
UACC-257 melanoma
  GI50: 2.02 µM
  TGI: 4.49 µM
UACC-62 melanoma
  GI50: 5.48 µM
  TGI: 20.3 µM
UO-31 renal
  GI50: 3.32 µM
  TGI: 14.7 µM
